Test [1] concerns the target PI3Kα (p110[H1047R]/p85) kinase (Homo sapiens, UniProt P42336, H1047R). The test is described as follows: PI3Kα (p110[H1047R]/p85) kinase ADP-Glo Assay. It is filed as biochemical. Particulars: 25 uM ATP; for selectivity: WT/H1047R: ADP-Glo Assay IC50 ratio. The gist of the method: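 PI3Kα H1047R/p85 pre-incubated 30 min at room temperature with PI(4,5)P2:PS substrate ([…]) and compound ([…]) in HEPES pH 7.5 buffer with MgCl2; ATP ([…]) then added for 120 min. ADP quantified by ADP-Glo luminescence; IC50 from four-parameter logistic fit.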

The test system of a further test is WT cell line SK-BR-3. The test is described as follows: Cell Proliferation Assay (CellTiter-Glo), SK-BR-3. It is filed as cell-based. Particulars: Homo sapiens, 72 h; SK-BR-3, 3 days treatment. The gist of the method:
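SK-BR-3 cells treated for 3 days with compound in a 9-point series, final concentrations 10 M to 1 nM in 0.1% DMSO. Viability read by CellTiter-Glo luminescence. Relative IC50 from percent inhibition versus medium-only and DMSO controls, four-parameter logistic fit.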
For orientation: Cellular ATP, detected with luciferase, serves as a proxy for viable cell number.

Sequence of PI3Kα (p110[H1047R]/p85) kinase (P42336 whole entry H1047R): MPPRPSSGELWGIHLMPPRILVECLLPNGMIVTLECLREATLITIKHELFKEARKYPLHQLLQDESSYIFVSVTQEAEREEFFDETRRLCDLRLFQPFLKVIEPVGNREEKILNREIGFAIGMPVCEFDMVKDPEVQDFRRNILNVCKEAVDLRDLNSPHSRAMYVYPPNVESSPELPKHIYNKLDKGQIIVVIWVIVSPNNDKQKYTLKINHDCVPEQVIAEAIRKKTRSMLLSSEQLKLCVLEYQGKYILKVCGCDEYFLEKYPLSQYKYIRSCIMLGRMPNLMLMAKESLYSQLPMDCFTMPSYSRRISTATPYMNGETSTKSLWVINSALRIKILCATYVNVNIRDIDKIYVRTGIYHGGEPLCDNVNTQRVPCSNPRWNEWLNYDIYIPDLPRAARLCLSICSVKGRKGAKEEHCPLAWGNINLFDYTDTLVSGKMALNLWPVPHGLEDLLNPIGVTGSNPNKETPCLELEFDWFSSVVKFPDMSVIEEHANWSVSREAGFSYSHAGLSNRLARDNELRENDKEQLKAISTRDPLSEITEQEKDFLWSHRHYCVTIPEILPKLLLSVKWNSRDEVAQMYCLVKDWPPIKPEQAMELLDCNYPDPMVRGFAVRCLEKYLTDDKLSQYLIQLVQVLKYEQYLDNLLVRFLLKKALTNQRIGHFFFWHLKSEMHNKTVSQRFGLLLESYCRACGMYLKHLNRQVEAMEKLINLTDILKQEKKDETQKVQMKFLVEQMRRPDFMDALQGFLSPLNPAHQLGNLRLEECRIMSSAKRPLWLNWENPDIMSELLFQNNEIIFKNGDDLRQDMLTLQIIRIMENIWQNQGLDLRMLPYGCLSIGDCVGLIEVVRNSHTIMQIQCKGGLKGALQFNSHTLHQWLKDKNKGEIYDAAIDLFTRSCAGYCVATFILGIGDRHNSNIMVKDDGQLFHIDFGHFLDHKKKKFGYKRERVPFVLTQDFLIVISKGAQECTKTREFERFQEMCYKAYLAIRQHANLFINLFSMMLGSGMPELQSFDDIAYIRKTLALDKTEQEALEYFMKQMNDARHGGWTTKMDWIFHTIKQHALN
Sequence of PI3Kα (p110[H1047R]/p85) kinase (P27986 whole entry partner): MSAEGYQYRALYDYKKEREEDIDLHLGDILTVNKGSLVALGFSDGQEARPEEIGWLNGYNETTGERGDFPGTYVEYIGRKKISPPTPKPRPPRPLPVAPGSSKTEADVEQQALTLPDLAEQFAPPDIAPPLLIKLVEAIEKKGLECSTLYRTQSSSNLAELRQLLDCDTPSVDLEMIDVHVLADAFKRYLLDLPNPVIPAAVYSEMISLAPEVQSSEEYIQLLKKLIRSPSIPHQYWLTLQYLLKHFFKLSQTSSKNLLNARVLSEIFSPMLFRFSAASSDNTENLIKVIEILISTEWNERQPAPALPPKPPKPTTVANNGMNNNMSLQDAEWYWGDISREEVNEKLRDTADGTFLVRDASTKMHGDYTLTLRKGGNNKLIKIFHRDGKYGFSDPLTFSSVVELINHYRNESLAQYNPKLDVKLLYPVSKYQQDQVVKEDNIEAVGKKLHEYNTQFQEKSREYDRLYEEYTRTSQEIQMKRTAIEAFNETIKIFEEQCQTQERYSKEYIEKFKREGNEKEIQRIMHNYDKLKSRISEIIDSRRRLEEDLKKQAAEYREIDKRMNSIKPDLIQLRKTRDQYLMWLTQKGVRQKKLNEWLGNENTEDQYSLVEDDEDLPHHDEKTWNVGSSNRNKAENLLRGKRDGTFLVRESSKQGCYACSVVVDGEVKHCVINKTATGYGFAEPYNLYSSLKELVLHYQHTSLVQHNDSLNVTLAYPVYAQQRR

The term IC50 denotes the concentration that gives 50% inhibition. With `Cc1cc(C(C)Nc2ccccc2C(=O)O)c2cc(-c3ccc(C4(O)CCOCC4)cc3)n(C)c(=O)c2c1` (centres unmarked) [Example 73, 2-((1-(3-(4-(4-hydroxytetrahydro-2H-pyran-4-yl)phenyl)-2,7-dimethyl-1-oxo-1,2-dihydroisoquinolin-5-yl)ethyl)amino)benzoic acid], in test [1], the 50% inhibitory concentration (IC50) was determined as 1030 nM and the “selectivity: WT/H1047R” value is 25.4. The IC50 in the test on WT cell line SK-BR-3 is above 10000 nM.
Consider `COC1(c2ccc(-c3cc4c(C(C)Nc5ccccc5C(=O)O)cc(C)cc4c(=O)n3C)cc2)CCOCC1` (centres unmarked) [Example 74, 2-((1-(3-(4-(4-methoxytetrahydro-2H-pyran-4-yl)phenyl)-2,7-dimethyl-1-oxo-1,2-dihydroisoquinolin-5-yl)ethyl)amino)benzoic acid], for which the half-maximal inhibitory concentration (IC50) in test [1] is 729 nM; in the test with WT cell line SK-BR-3, above 10000 nM. Further, the “selectivity: WT/H1047R” value in test [1] was 18.0.
Regarding `Cc1cc(C(C)Nc2ccccc2C(=O)O)c2cc(-c3ccc4c(c3)C(=O)N(C)C4)n(C)c(=O)c2c1` (centres unmarked) [Example 75, 2-((1-(2,7-dimethyl-3-(2-methyl-3-oxoisoindolin-5-yl)-1-oxo-1,2-dihydroisoquinolin-5-yl)ethyl)amino)benzoic acid], the concentration for half-maximal inhibition (IC50) in test [1] was 974 nM; in the test on WT cell line SK-BR-3, above 10000 nM. In addition, in test [1], the “selectivity: WT/H1047R” value stood at 32.3.
Regarding `Cc1cc(C(C)Nc2ccccc2C(=O)O)c2cc(C3=CCN(c4ccccc4)C3)n(C)c(=O)c2c1` (centres unmarked) [Example 76, 2-((1-(2,7-dimethyl-1-oxo-3-(1-phenyl-2,5-dihydro-1H-pyrrol-3-yl)-1,2-dihydroisoquinolin-5-yl)ethyl)amino)benzoic acid], the IC50 in test [1] is 516 nM; in the test with WT cell line SK-BR-3, above 10000 nM. Also, the “selectivity: WT/H1047R” value in test [1] is 22.8.
Regarding `Cc1cc(C(C)Nc2ccccc2C(=O)O)c2cc(-c3ccn(-c4ccccc4)c3)n(C)c(=O)c2c1` (centres unmarked) [Example 77, 2-((1-(2,7-dimethyl-1-oxo-3-(1-phenyl-1H-pyrrol-3-yl)-1,2-dihydroisoquinolin-5-yl)ethyl)amino)benzoic acid], the concentration for half-maximal inhibition (IC50) in test [1] is 325 nM; with WT cell line SK-BR-3, above 10000 nM. The “selectivity: WT/H1047R” value in test [1] was 21.4.
In the case of `Cc1cc(C(C)Nc2ccccc2C(=O)O)c2cc(-c3ccc(CN4CCOCC4)nc3)n(C)c(=O)c2c1` (centres unmarked) [Example 78, 2-((1-(2,7-dimethyl-3-(6-(morpholinomethyl)pyridin-3-yl)-1-oxo-1,2-dihydroisoquinolin-5-yl)ethyl)amino)benzoic acid], in test [1], half-maximal inhibition (IC50) was put at 2210 nM and the “selectivity: WT/H1047R” value amounted to 29.7. In addition, the IC50 in the test on WT cell line SK-BR-3 was above 10000 nM.
With `Cc1cc(C(C)Nc2ccccc2C(=O)O)c2cc(-c3ccc(P(C)(C)=O)cc3)n(C)c(=O)c2c1` (centres unmarked) [Example 79, 2-((1-(3-(4-(dimethylphosphoryl)phenyl)-2,7-dimethyl-1-oxo-1,2-dihydroisoquinolin-5-yl)ethyl)amino)benzoic acid], in test [1], the midpoint of inhibition, the IC50, lay at 2420 nM and the “selectivity: WT/H1047R” value worked out at 24.4. For the same compound, in the test with WT cell line SK-BR-3, the IC50 is above 10000 nM.
For the compound `Cc1cc(C(C)Nc2ccccc2C(=O)O)c2cc(C#Cc3cnn(C)c3)n(C)c(=O)c2c1` (centres unmarked) [Example 80, 2-((1-(2,7-dimethyl-3-((1-methyl-1H-pyrazol-4-yl)ethynyl)-1-oxo-1,2-dihydroisoquinolin-5-yl)ethyl)amino)benzoic acid], in test [1], the IC50 was 304 nM and the “selectivity: WT/H1047R” value is listed as 10.8. This compound returned an IC50 in the test with WT cell line SK-BR-3 above 10000 nM.
For `CCn1c(-c2ccc(F)cc2)cc2c(C(C)Nc3ccc(Cl)nc3C(=O)O)cc(C)cc2c1=O` (centres unmarked) [Example 81, 6-chloro-3-((1-(2-ethyl-3-(4-fluorophenyl)-7-methyl-1-oxo-1,2-dihydroisoquinolin-5-yl)ethyl)amino)picolinic acid], in that order: 215 nM, 17.6 and above 10000 nM.
`Cc1cc(C(C)Nc2ccccc2S(C)(=O)=O)c2cc(-c3ccccc3)n(C)c(=O)c2c1` (centres unmarked) [Example 82, 2,7-dimethyl-5-(1-((2-(methylsulfonyl)phenyl)amino)ethyl)-3-phenylisoquinolin-1(2H)-one]: the half-maximal inhibitory concentration (IC50) in test [1] is 549 nM; in the test on WT cell line SK-BR-3 it was above 10000 nM. In test [1], the “selectivity: WT/H1047R” value amounted to 6.0.
Consider `Cc1cc(C(C)Nc2ccccc2C(=O)O)c2cc(-c3ccc(N4CCCC4)cc3)n(C)c(=O)c2c1` (centres unmarked) [Example 84, 2-((1-(2,7-dimethyl-1-oxo-3-(4-(pyrrolidin-1-yl)phenyl)-1,2-dihydroisoquinolin-5-yl)ethyl)amino)benzoic acid], for which, in test [1], the IC50 amounted to 242 nM and the “selectivity: WT/H1047R” value came to 60.4. The IC50 in the test on WT cell line SK-BR-3 is above 10000 nM.
On to `Cc1cc(C(C)Nc2ccccc2C(=O)O)c2cc(-c3ccc(C(F)(F)F)nc3)n(C)c(=O)c2c1` (centres unmarked) [Example 86, 2-((1-(2,7-dimethyl-1-oxo-3-(6-(trifluoromethyl)pyridin-3-yl)-1,2-dihydroisoquinolin-5-yl)ethyl)amino)benzoic acid], for which the concentration for half-maximal inhibition (IC50) in test [1] was 575 nM; in the test on WT cell line SK-BR-3, above 10000 nM. Besides, the “selectivity: WT/H1047R” value in test [1] is 26.3.
For `Cc1cc(C(C)Nc2ccccc2C(=O)O)c2cc(-c3cnn(CC45CC6C[C@H](C4)C[C@H](C6)C5)c3C)n(C)c(=O)c2c1` (stereo partly drawn) [Example 87, 2-((1-(3-(1-(((3S,5S)-adamantan-1-yl)methyl)-5-methyl-1H-pyrazol-4-yl)-2,7-dimethyl-1-oxo-1,2-dihydroisoquinolin-5-yl)ethyl)amino)benzoic acid], in that order: 1500 nM, above 10000 nM and 23.5.
As for `Cc1cc(C(C)Nc2ccccc2C(=O)O)c2cc(C#Cc3ccn(C)n3)n(C)c(=O)c2c1` (centres unmarked) [Example 88, 2-((1-(2,7-dimethyl-3-((1-methyl-1H-pyrazol-3-yl)ethynyl)-1-oxo-1,2-dihydroisoquinolin-5-yl)ethyl)amino)benzoic acid], the IC50 in test [1] is 152 nM; with WT cell line SK-BR-3, above 10000 nM. Besides, the “selectivity: WT/H1047R” value in test [1] came out at 11.5.
For `Cc1cc(C(C)Nc2ccccc2C(=O)O)c2cc(C#CC3(O)CCCC3)n(C)c(=O)c2c1` (centres unmarked) [Example 89, 2-((1-(3-((1-hydroxycyclopentyl)ethynyl)-2,7-dimethyl-1-oxo-1,2-dihydroisoquinolin-5-yl)ethyl)amino)benzoic acid], in that order: 158 nM, above 10000 nM and 43.3.
For `Cc1cc(C(C)Nc2ccccc2C(=O)O)c2cc(C#Cc3cnn(-c4ccccc4)c3)n(C)c(=O)c2c1` (centres unmarked) [Example 94, 2-((1-(2,7-dimethyl-1-oxo-3-((1-phenyl-1H-pyrazol-4-yl)ethynyl)-1,2-dihydroisoquinolin-5-yl)ethyl)amino)benzoic acid], in that order: 387 nM, above 10000 nM and above 258.
The matching figures for `Cc1cc(C(C)Nc2ccccc2C(=O)O)c2cc(-c3ccc(F)cc3)n(C3COC3)c(=O)c2c1` (centres unmarked) [Example 95, 2-((1-(3-(4-fluorophenyl)-7-methyl-2-(oxetan-3-yl)-1-oxo-1,2-dihydroisoquinolin-5-yl)ethyl)amino)benzoic acid]: 91 nM, above 10000 nM and 47.6.
As to `Cc1cc(C(C)Nc2ccccc2C(=O)O)c2cc(-c3ccc(F)cc3)n(C3CCOCC3)c(=O)c2c1` (centres unmarked) [Example 96, 2-((1-(3-(4-fluorophenyl)-7-methyl-1-oxo-2-(tetrahydro-2H-pyran-4-yl)-1,2-dihydroisoquinolin-5-yl)ethyl)amino)benzoic acid], in test [1], the concentration for half-maximal inhibition (IC50) is 910 nM and the “selectivity: WT/H1047R” value is listed as 79.1. Besides, the half-inhibitory concentration (IC50) in the test on WT cell line SK-BR-3 is above 10000 nM.
Take `Cc1cc(C(C)Nc2ccncc2C(=O)O)c2cc(-c3ccc(F)cc3)n(C)c(=O)c2c1` (centres unmarked) [Example 97, 4-((1-(3-(4-fluorophenyl)-2,7-dimethyl-1-oxo-1,2-dihydroisoquinolin-5-yl)ethyl)amino)nicotinic acid]: the results for the IC50 (in test [1]; with WT cell line SK-BR-3) were above 100000 nM and above 10000 nM, respectively.
